# Data from patent US8367342B2, “Cardiac hypertrophy” (Lead Pharma Drug Development IP B.V., priority 2006, dated 2013).
# Tested on: neonatal rat ventricular myocytes
# Experiment: Cardiomyocyte hypertrophy (a-actinin staining, cell surface area) in cultured neonatal rat cardiomyocytes
# Type: cell-based
# Parameters: dose or concentration left out as unconfirmed
# Conditions: cells treated with the control siRNA; AdCnA infection or phenylephrine
# Experimental: Cardiomyocyte cultures and siRNA transfection. Neonatal rat ventricular myocytes were obtained as described previously in detail^6. Neonatal ventricular rat myocytes were obtained by enzymatic dissociation of 1-2 day old rat neonatal ventricles. Ventricles were stored in HEPES buffered DMEM (pH. 7.4) prior to multiple rounds of enzymatic digestion in DMEM nutrient mixture F-12 Ham base (Sigma) supplemented with 0.7 mg/ml collagenase type 2 (Invitrogen) and 1 mg/ml […] (Sigma). Cells were collected by centrifugation at 61×g for 10 min., resuspended in neonatal calf serum (Invitrogen) and stored in an incubator at 37° C. All cell suspensions were pooled, centrifuged at 61×g for 10 min. and resuspended in DMEM (Invitrogen) supplemented with 10% horse serum (Invitrogen) and 5% fetal calf serum (Invitrogen). […]
# Immunocytochemistry and confocal microscopy. […] Cells were washed 3 times with PBS for 5 minutes, mounted with coverslips in 0.1 M Tris-HCl (pH 9.5)-glycerol (3:7) including 50 mg/ml n-propylgallate as anti-fading reagent, and analyzed by confocal microscopy using a Zeiss LSM 510 META instrument. […] Cell surface areas were determined using SPOT-imaging software (Diagnostic Instruments) on 80-100 GFP-positive cardiomyocytes in 10 to 20 fields in three independent experiments. […]
structure (smiles),measurement,value
"CNC[C@H](O)c1cccc(O)c1 [PE, phenylephrine]",hypertrophy response,robust hypertrophy response
